Measurements from the METLIN SMRT retention time set (Domingo-Almenara et al. 2019).

assay: gradient 5% acetonitrile 3 min, to 50% in 2 min, to 85% in 15 min, held 3 min, 100 µL/min; details: column: Zorbax Extend-C18 2.1 x 50 mm; eluents: water / acetonitrile, 0.1% formic acid
Procedure, shortened: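 Each retention time is based on an adduct peak selected computationally and verified by manual inspection. Measurements used HPLC–quadrupole time-of-flight mass spectrometry in positive and negative ionization mode on mixtures of ~100 pure standards. Chromatography ran on a Zorbax Extend-C18 column (2.1 × 50 mm, 1.8 μm) at 100 μL/min with water and acetonitrile, each containing 0.1% formic acid, and dead and dwell volumes of 40 μL and 900 μL.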

RP-LC retention time [s]	Structure (SMILES)
1140	CC1CCN(c2cc(-n3cnc(C(=O)N4CCc5ccccc54)c3)ncn2)CC1
645	CCCNC(=O)C1CCN(c2ccc(SCC(=O)Nc3cccc(F)c3)nn2)CC1
762	CC(C)CCNC(=O)C1CCCN(C(=O)Nc2ccc(NC(=O)NC3CCCC3)cc2)C1 (configuration not stated)
672	Cc1cc(=O)n(CC(=O)Nc2ccc(Cl)cc2)c(N2CCCC2)n1
1270	CCn1nccc1-c1cccc(-c2noc(-c3ccc(F)cc3F)n2)c1
624	CCNC(=O)C1CCN(S(=O)(=O)c2cc(C(=O)N(C)C)cs2)CC1
872	O=C(NCCc1csc(-c2cccs2)n1)C1CCN(S(=O)(=O)c2ccccc2F)CC1
622	CCc1cc(C(c2cccc(F)c2)N2CCN(C)CC2)c(NC(=O)c2ccccc2)s1 (configuration not stated)
594	Cn1cnc(S(=O)(=O)N2CCCCC2c2nc(-c3cccnc3)n[nH]2)c1 (configuration not stated)
600	O=C(NCC1(c2cccs2)CCOCC1)C(=O)Nc1cccnc1
572	CCCNc1cc(N2CCC(CCC(=O)NC3CCN(Cc4ccccc4)CC3)CC2)ncn1
671	Cc1ccc2nc(-c3ccc(O)cc3)c(Nc3ccc(Cl)cc3)n2c1
729	Cc1ccccc1-c1noc(-c2cccn(CC(=O)NCC3CCCO3)c2=O)n1 (configuration not stated)
1040	COc1ccc(NC(=O)c2nnn(-c3ccc(C)c(F)c3)c2C)cc1Cl
693	CCc1nc2cc(N3CCCC(C(=O)O)C3)cnc2nc1CC (configuration not stated)
974	CC1CCN(C(=O)c2nc(CCS(=O)(=O)c3ccc(Cl)cc3)no2)CC1
820	Clc1cccc(-c2cc3c(N4CCN(Cc5ccc6c(c5)OCO6)CC4)nccn3n2)c1
1290	COc1cccc(-n2c(=O)c(C(=O)Nc3ccccc3Cl)c(O)c3cccnc32)c1
803	O=C1COc2ccc(S(=O)(=O)N3CCC(C(=O)Nc4ccc(C(F)(F)F)cc4)CC3)cc2N1
606	COc1nccnc1N1CCC(NC(=O)CCc2c(C)noc2C)C1 (configuration not stated)
824	O=C(NC1CCCC1)c1ccc2c(c1)CC(=O)N2Cc1ccc(F)cc1
811	O=C(Nc1ccccc1F)N1CCC(n2cnc3cc(Cl)ccc3c2=O)CC1
782	Cc1cccc(CC(=O)N2CCCn3cc(-c4cccc(C#N)c4)nc32)c1
948	CCOC(=O)c1noc2ncnc(Nc3cccc(C)c3C)c12
943	CCc1ccc(S(=O)(=O)NCc2c(-c3ccccc3)nc3sc(C)nn23)cc1
869	Cc1ccccc1Nc1c(-c2ccccc2)nc2ccc(Cl)cn12
666	O=C(NCc1ccc2c(c1)OCO2)C1CCCN(c2cnc3nccnc3c2)C1 (configuration not stated)

Further lines, the compound ahead of its results:

Structure (SMILES)	RP-LC retention time [s]
CCC(C)C(NC(=O)c1ccc(F)c(F)c1)C(=O)Nc1nc2ccccc2[nH]1 (configuration not stated)	774
Cc1ccccc1Cn1c(CN2CCC(C(=O)NC(C)Cc3ccco3)CC2)cc2ccccc21 (configuration not stated)	833
CCN1CCN(S(=O)(=O)c2ccc(Cl)c(C(F)(F)F)c2)CC1	569
CSc1cccc(NC(=O)CCCn2nc(-n3cccc3)c3c(C)cc(C)nc32)c1	1040
CCn1cc(Br)c(C(=O)Nc2ccc(C(C)=O)cc2)n1	829
CCOC(=O)N1CCC(NC(=O)c2cn(-c3cccc(Cl)c3)nn2)CC1	795
CC(=O)N1CCc2ccccc2C1C(=O)NCc1ccc(F)cc1 (configuration not stated)	762
Cc1ccc(S(=O)(=O)Nc2ccc3c(c2)CCC(=O)N3C)cc1Cl	1000
O=S(=O)(c1ccccc1-c1nc(-c2ccccc2)no1)N1CCN(C2CCCCC2)CC1	755
CCCCOC(=O)c1ccc(Nc2ncnc(N)c2[N+](=O)[O-])cc1	930
COc1ccc(OC)c(NC(=O)CN2CCN(Cc3ccccc3)C(=O)C2=O)c1	732
O=C(Cc1ccc(F)cc1)Nc1ccc(-c2ccc3nncn3n2)cc1	676
Cc1nc(-c2cccc(C(=O)N3CCCc4ccccc43)c2)no1	900
Cc1ccc(C)c(N2CCN(c3ccnc(SCC(=O)Nc4ccc(Cl)cc4)n3)CC2)c1	967
Cc1c(C(=O)NC2CC2)cc(-c2ccccc2)n1C	605
CCn1c(=O)c(C(=O)N2CCCC2)nc2ccccc21	665
COCCN(Cc1ccc(F)cc1)Cc1cc(=O)c2cc(Cl)ccc2[nH]1	880
Cc1[nH]c(C(=O)N2CCCC(C(=O)NCc3ccc4c(c3)OCO4)C2)c(C)c1C(=O)OC(C)C (configuration not stated)	842
COC(=O)CCSCC(=O)Nc1nnc(C)s1	602
N#Cc1cccc(-c2nc(-c3cccc(-c4ccn[nH]4)c3)no2)c1	920

Structure (SMILES)	RP-LC retention time [s]
CCC1Oc2ccc(S(=O)(=O)N3CCC(C(=O)Nc4cccc(Cl)c4)CC3)cc2NC1=O (configuration not stated)	892
O=c1ccc(-c2ccccc2Cl)nn1Cc1nc(-c2ccc3c(c2)OCO3)no1	996
Cc1ccc(O)c(CNC2CCN(c3ccc(C(=O)NC4CC4)cn3)C2)c1 (configuration not stated)	560
CCCN1CCN(C(=O)c2sc(-c3cn(C(C)C)c4ncccc34)nc2C)CC1	619
CN(C)CCCN1c2ccccc2Sc2ccc(C(F)(F)F)cc21	885
CCc1nc2cc(N3CCC(C(=O)Nc4ccc(OC)cc4)CC3)cnc2nc1CC	827
CN(C)S(=O)(=O)c1ccc(-c2nnc(C(=O)NC3CCN(Cc4ccccc4)CC3)o2)cc1	754
CCCn1cc(CCNS(=O)(=O)c2ccc(C(C)(C)C)cc2)c2cccnc21	1070
O=C(CC1CCCCC1)NC(Cc1ccccc1)C(=O)N1CCN(c2ccccn2)CC1 (configuration not stated)	695
CC(C)COc1ccc(C(=O)N(Cc2ccc(Br)o2)C2CCS(=O)(=O)C2)cc1 (configuration not stated)	1050
CC(C)n1c(=O)oc2cc(-c3noc(-c4ccc(F)cc4)n3)ccc21	1170
Cc1[nH]c(=O)[nH]c(=O)c1S(=O)(=O)N1CCCC1	583
CC1CCN(C(=O)c2ccc(-c3ccsc3)nc2)CC1	876
O=C(Nc1cnc(-c2cccc(Cl)c2)nc1)c1ccccc1	1070
CCc1nn2c(CNC(=O)c3ccccc3Cl)c(C)nc2s1	650
O=C(NCc1ccccn1)C(=O)NCC1OCCN1C(=O)c1ccc2c(c1)OCO2 (configuration not stated)	563
O=C(NC1CCCC1)C1CCCCN1S(=O)(=O)c1ccc(F)cc1 (configuration not stated)	941
O=c1n(CCc2ccccc2)nc2ccc(S(=O)(=O)N3CCCC3)cn12	868
N#Cc1cnc2ccc(F)cc2c1N1CCC(C(=O)Nc2ccc(F)cc2)CC1	885
COc1c(C(=O)NC(C)(C)C)sc2ccc(F)cc12	1080
